In ChEMBL document CHEMBL1240437, “Structural characterization and antibacterial activity against clinical isolates of Staphylococcus of N-phenylamide of monensin A and its 1:1 complexes with monovalent cations” (2010):
≈ marks a conversion by molar mass, not a printed value.

What was measured:
Type in all cases: functional
Staphylococcus aureus [1] = test: Antimicrobial activity against methicillin-susceptible Staphylococcus aureus 326/08 after 18 hrs by disc-diffusion method; conditions: 326/08, 18 h
[2] = test system: Staphylococcus epidermidis; test: Antimicrobial activity against methicillin-resistant Staphylococcus epidermidis 291/08 after 18 hrs by disc-diffusion method; conditions: 291/08, 18 h
[3] = test system: Staphylococcus epidermidis; test: Antimicrobial activity against methicillin-resistant Staphylococcus epidermidis 315/08 after 18 hrs by disc-diffusion method; conditions: 315/08, 18 h
Staphylococcus aureus [4] = test: Antimicrobial activity against methicillin-susceptible Staphylococcus aureus 320/08 after 18 hrs by disc-diffusion method; conditions: 320/08, 18 h
Staphylococcus aureus [5] = test: Antimicrobial activity against methicillin-resistant Staphylococcus aureus 333/08 after 18 hrs by disc-diffusion method; conditions: 333/08, 18 h
Staphylococcus aureus [6] = test: Antimicrobial activity against methicillin-susceptible Staphylococcus aureus 338/08 after 18 hrs by disc-diffusion method; conditions: 338/08, 18 h
Staphylococcus aureus [7] = test: Antimicrobial activity against methicillin-resistant Staphylococcus aureus 331/08 after 18 hrs by disc-diffusion method; conditions: 331/08, 18 h
Staphylococcus aureus [8] = test: Antimicrobial activity against methicillin-resistant Staphylococcus aureus 307/08 after 18 hrs by disc-diffusion method; conditions: 307/08, 18 h
Staphylococcus aureus [9] = test: Antimicrobial activity against methicillin-susceptible Staphylococcus aureus 327/08 after 18 hrs by disc-diffusion method; conditions: 327/08, 18 h
Staphylococcus aureus [10] = test: Antimicrobial activity against methicillin-resistant Staphylococcus aureus 330/08 after 18 hrs by disc-diffusion method; conditions: 330/08, 18 h
Staphylococcus aureus [11] = test: Antimicrobial activity against methicillin-susceptible Staphylococcus aureus 319/08 after 18 hrs by disc-diffusion method; conditions: 319/08, 18 h
[12] = test system: Staphylococcus epidermidis; test: Antimicrobial activity against methicillin-resistant Staphylococcus epidermidis 318/08 after 18 hrs by disc-diffusion method; conditions: 318/08, 18 h
Staphylococcus aureus [13] = test: Antimicrobial activity against methicillin-susceptible Staphylococcus aureus 321/08 after 18 hrs by disc-diffusion method; conditions: 321/08, 18 h
Staphylococcus aureus [14] = test: Antimicrobial activity against methicillin-resistant Staphylococcus aureus 329/08 after 18 hrs by disc-diffusion method; conditions: 329/08, 18 h
[15] = test system: Staphylococcus epidermidis; test: Antimicrobial activity against methicillin-resistant Staphylococcus epidermidis 289/08 after 18 hrs by disc-diffusion method; conditions: 289/08, 18 h
Staphylococcus aureus [16] = test: Antimicrobial activity against methicillin-resistant Staphylococcus aureus 334/08 after 18 hrs by disc-diffusion method; conditions: 334/08, 18 h
[17] = test system: Staphylococcus epidermidis; test: Antimicrobial activity against methicillin-resistant Staphylococcus epidermidis 293/08 after 18 hrs by disc-diffusion method; conditions: 293/08, 18 h
Staphylococcus aureus [18] = test: Antimicrobial activity against methicillin-susceptible Staphylococcus aureus 324/08 after 18 hrs by disc-diffusion method; conditions: 324/08, 18 h
Staphylococcus aureus [19] = test: Antimicrobial activity against methicillin-susceptible Staphylococcus aureus 322/08 after 18 hrs by disc-diffusion method; conditions: 322/08, 18 h
[20] = test system: Staphylococcus epidermidis; test: Antimicrobial activity against methicillin-resistant Staphylococcus epidermidis 317/08 after 18 hrs by disc-diffusion method; conditions: 317/08, 18 h
[21] = test system: Staphylococcus epidermidis; test: Antimicrobial activity against methicillin-resistant Staphylococcus epidermidis 292/08 after 18 hrs by disc-diffusion method; conditions: 292/08, 18 h
Staphylococcus aureus [22] = test: Antimicrobial activity against methicillin-susceptible Staphylococcus aureus 328/08 after 18 hrs by disc-diffusion method; conditions: 328/08, 18 h
Staphylococcus aureus [23] = test: Antimicrobial activity against methicillin-resistant Staphylococcus aureus 308/08 after 18 hrs by disc-diffusion method; conditions: 308/08, 18 h
Staphylococcus aureus [24] = test: Antimicrobial activity against methicillin-resistant Staphylococcus aureus 309/08 after 18 hrs by disc-diffusion method; conditions: 309/08, 18 h
[25] = test system: Staphylococcus epidermidis; test: Antimicrobial activity against methicillin-resistant Staphylococcus epidermidis 316/08 after 18 hrs by disc-diffusion method; conditions: 316/08, 18 h
[26] = test system: Staphylococcus epidermidis; test: Antimicrobial activity against methicillin-resistant Staphylococcus epidermidis 290/08 after 18 hrs by disc-diffusion method; conditions: 290/08, 18 h
Staphylococcus aureus [27] = test: Antimicrobial activity against methicillin-susceptible Staphylococcus aureus 339/08 after 18 hrs by disc-diffusion method; conditions: 339/08, 18 h
Staphylococcus aureus [28] = test: Antimicrobial activity against methicillin-resistant Staphylococcus aureus 335/08 after 18 hrs by disc-diffusion method; conditions: 335/08, 18 h
Staphylococcus aureus [29] = test: Antimicrobial activity against methicillin-resistant Staphylococcus aureus 332/08 after 18 hrs by disc-diffusion method; conditions: 332/08, 18 h
[30] = test system: Staphylococcus epidermidis; test: Antimicrobial activity against methicillin-resistant Staphylococcus epidermidis 311/08 after 18 hrs by disc-diffusion method; conditions: 311/08, 18 h

Row | Structure (SMILES) | MIC (Staphylococcus aureus [1]) | MIC [2] | MIC [3] | MIC (Staphylococcus aureus [4]) | MIC (Staphylococcus aureus [5]) | MIC (Staphylococcus aureus [6]) | MIC (Staphylococcus aureus [7]) | MIC (Staphylococcus aureus [8]) | MIC (Staphylococcus aureus [9]) | MIC (Staphylococcus aureus [10]) | MIC (Staphylococcus aureus [11]) | MIC [12] | MIC (Staphylococcus aureus [13]) | MIC (Staphylococcus aureus [14]) | MIC [15] | MIC (Staphylococcus aureus [16]) | MIC [17] | MIC (Staphylococcus aureus [18]) | MIC (Staphylococcus aureus [19]) | MIC [20] | other results
1 | CC[C@@]1([C@H]2O[C@@H]([C@H]3O[C@@](O)(CO)[C@H](C)C[C@@H]3C)C[C@@H]2C)CC[C@@H]([C@]2(C)CC[C@]3(C[C@H](O)[C@@H](C)[C@@H]([C@@H](C)[C@@H](OC)[C@H](C)C(=O)Nc4ccccc4)O3)O2)O1 | 8.37 µM (≈ 6.24 µg/mL) | 8.37 µM (≈ 6.24 µg/mL) | 8.37 µM (≈ 6.24 µg/mL) | 16.8 µM (≈ 12.5 µg/mL) | 8.37 µM (≈ 6.24 µg/mL) | 8.37 µM (≈ 6.24 µg/mL) | 8.37 µM (≈ 6.24 µg/mL) | 8.37 µM (≈ 6.24 µg/mL) | 8.37 µM (≈ 6.24 µg/mL) | 8.37 µM (≈ 6.24 µg/mL) | 8.37 µM (≈ 6.24 µg/mL) | 33.5 µM (≈ 25 µg/mL) | 16.8 µM (≈ 12.5 µg/mL) | 8.37 µM (≈ 6.24 µg/mL) | 8.37 µM (≈ 6.24 µg/mL) | 8.37 µM (≈ 6.24 µg/mL) | 8.37 µM (≈ 6.24 µg/mL) | 8.37 µM (≈ 6.24 µg/mL) | 16.8 µM (≈ 12.5 µg/mL) | 8.37 µM (≈ 6.24 µg/mL) | MIC [21]: 16.8 µM (≈ 12.5 µg/mL); MIC (Staphylococcus aureus [22]): 33.5 µM (≈ 25 µg/mL); MIC (Staphylococcus aureus [23]): 8.37 µM (≈ 6.24 µg/mL); MIC (Staphylococcus aureus [24]): 8.37 µM (≈ 6.24 µg/mL); MIC [25]: 8.37 µM (≈ 6.24 µg/mL); MIC [26]: 16.8 µM (≈ 12.5 µg/mL); MIC (Staphylococcus aureus [27]): 33.5 µM (≈ 25 µg/mL); MIC (Staphylococcus aureus [28]): 8.37 µM (≈ 6.24 µg/mL); MIC (Staphylococcus aureus [29]): 8.37 µM (≈ 6.24 µg/mL); MIC [30]: 8.37 µM (≈ 6.24 µg/mL)
2 | CC[C@@]1([C@@H]2O[C@@H]([C@H]3O[C@@](O)(CO)[C@H](C)C[C@@H]3C)C[C@@H]2C)CC[C@H]([C@]2(C)CC[C@]3(C[C@H](O)[C@@H](C)[C@@H]([C@@H](C)[C@@H](OC)[C@H](C)C(=O)O)O3)O2)O1 [MONENSIN] | 2.98 µM (≈ 2 µg/mL) | 2.98 µM (≈ 2 µg/mL) | 1.49 µM (≈ 1 µg/mL) | 2.98 µM (≈ 2 µg/mL) | 1.49 µM (≈ 1 µg/mL) | 2.98 µM (≈ 2 µg/mL) | 1.49 µM (≈ 1 µg/mL) | 2.98 µM (≈ 2 µg/mL) | 2.98 µM (≈ 2 µg/mL) | 1.49 µM (≈ 1 µg/mL) | 2.98 µM (≈ 2 µg/mL) | 5.96 µM (≈ 4 µg/mL) | 2.98 µM (≈ 2 µg/mL) | 2.98 µM (≈ 2 µg/mL) | 2.98 µM (≈ 2 µg/mL) | 1.49 µM (≈ 1 µg/mL) | 1.49 µM (≈ 1 µg/mL) | 1.49 µM (≈ 1 µg/mL) | 2.98 µM (≈ 2 µg/mL) | 1.49 µM (≈ 1 µg/mL) | MIC [21]: 2.98 µM (≈ 2 µg/mL); MIC (Staphylococcus aureus [22]): 2.98 µM (≈ 2 µg/mL); MIC (Staphylococcus aureus [23]): 2.98 µM (≈ 2 µg/mL); MIC (Staphylococcus aureus [24]): 2.98 µM (≈ 2 µg/mL); MIC [25]: 1.49 µM (≈ 1 µg/mL); MIC [26]: 2.98 µM (≈ 2 µg/mL); MIC (Staphylococcus aureus [27]): 5.96 µM (≈ 4 µg/mL); MIC (Staphylococcus aureus [28]): 1.49 µM (≈ 1 µg/mL); MIC (Staphylococcus aureus [29]): 1.49 µM (≈ 1 µg/mL); MIC [30]: 1.49 µM (≈ 1 µg/mL)
